What all share (format): in vivo
The test system of test [1] is Culex quinquefasciatus strain P00. Kind of test: Culex quinquefasciatus test (CULXFA surface treatment & contact assay). Conditions: surface concentration 4 mg/m^2, exposure 30 minutes, 24 hours after contact, read-out: efficacy (mortality). The protocol:
Culex Quinquefasciatus Test (CULXFA Surface Treatment & Contact Assay)
(§1) Solvent: Aceton+2000 ppm rapeseed oil methyl ester (RME)
In order to produce a sufficient, active ingredient containing solution it is necessary to solve the test compound in the solvent-mix (acetone at 2 mg/ml/RME 2000 ppm). This solution is pipetted onto a glazed tile and after evaporation of the acetone, adult mosquitoes of the species Culex quinquefasciatus strain P00 are placed onto the dried surface. The exposure time is 30 minutes.
(§2) Mortality in percent (%) is determined 24 hours after contact of the insects to the treated surface. 100% mortality means that all tested insects are dead, whereas 0% means that no insect died.

Another test has as its system Spodoptera frugiperda. Kind of test: Spodoptera frugiperda spray test. Conditions: 168 h, after 7 days, larvae on maize leaf sections. Summed up: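 Maize leaf sections were sprayed with compound formulated in solvent and diluted in water containing 1000 ppm emulsifier, then infested with fall armyworm larvae after drying. Percent mortality was scored after 7 days (100% = all caterpillars dead, 0% = none).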

Test [2] deals with Aedes aegypti strain MONHEIM. The test is described as follows: Aedes aegypti test (AEDSAE surface treatment & contact assay). The conditions noted are these: surface concentration 20 mg/m^2, exposure 30 minutes, 24 hours after contact, read-out: efficacy (mortality). The protocol: Aedes Aegypti Test (AEDSAE Surface Treatment & Contact Assay)
as §1
In order to produce a sufficient, active ingredient containing solution it is necessary to solve the test compound in the solvent-mix (acetone at 2 mg/ml/RME 2000 ppm). This solution is pipetted onto a glazed tile and after evaporation of the acetone, adult mosquitoes of the species Aedes aegypti strain MONHEIM are placed onto the dried surface. The exposure time is 30 minutes.
as §2

The test system of the next test is Diabrotica balteata. The test is described as follows: Diabrotica balteata spray test. Conditions: Diabrotica balteata, in Triticum aestivum, 168 h, after 7 days, larvae on wheat seeds, read-out: efficacy (seedlings grown up); for pest or weed control at 80 µg/disc, 250 g/ha: 80 μg/well (=250 g/ha); for pest or weed control at 160 µg/disc, 500 g/ha: 160 μg/well (=500 g/ha). In short, it runs like this: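 Germinated wheat seeds (5 per well, 1 day on agar) sprayed with compound diluted in water containing 1000 ppm emulsifier, then infested with 10–20 D. balteata larvae. Efficacy scored after 7 days: 100% = seedlings like untreated uninfested control, 0% = no seedlings grown.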

For the next test, the system named is Boophilus microplus. The test is described as follows: Boophilus microplus injection test. The conditions noted are these: Rhipicephalus microplus, 168 h; 20 μg/animal injected into the abdomen; adult engorged female ticks; egg deposition after 7 days; read-out: efficacy (infertile eggs). Summed up: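 Five engorged adult female ticks received a 1 μl abdominal injection of compound in DMSO. They were then held in a climate chamber, with egg deposition checked after 7 days. Unclear eggs were kept until hatching at about 42 days, and efficacy was scored as the percentage of infertile eggs.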

Test [3] has as its system Ctenocephalides felis. The test is described as follows: Ctenocephalides felis oral test. The conditions noted are these: 48 h, 100 ppm in cattle blood, after 2 days, adult unfed cat fleas. Summed up:
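About 20 unfed adult cat fleas feed through parafilm on cattle blood dosed with compound from a DMSO stock. Blood chamber at 37° C, fleas at room temperature. Percent mortality scored after 2 days.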

Test [4] relates to Myzus persicae. The test is described as follows: Myzus persicae oral test. The conditions noted are these: 120 h, 4 ppm, after 5 days. How it is done: Solvent: 100 parts by weight acetone
To produce a suitable preparation of active compound, 1 part by weight of active compound is mixed with the stated amount of solvent, and the concentrate is diluted with water to the desired concentration.
50 μl compound solution is filled in microtiter plates and 150 μl IPL41 insect medium (33%+15% sugar) is added to obtain a total volume of 200 μl per well. Afterwards the plates are sealed with parafilm through which a mixed population of the green peach aphid (Myzus persicae) can suck on the compound preparation.
(§3) After 5 days mortality in % is determined. 100% means all aphids have been killed and 0% means none of the aphids have been killed.

Another test has as its system Nezara viridula. Kind of test: Nezara viridula spray test. The conditions noted are these: 96 h, after 4 days, larvae on barley plants. Summed up:
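Barley plants infested with Nezara viridula larvae were sprayed with compound diluted in water containing 1000 ppm emulsifier. Percent mortality was scored 4 days later, where 100% means all bugs killed and 0% none.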

Test [5] deals with Ctenocephalides felis. Kind of test: Ctenocephalides felis in-vitro contact test, adult cat flea. Conditions: 5 μg/cm^2 (=500 g/ha), after 48 hours, adult cat fleas, read-out: efficacy (fleas dead or moribund). How it is done: Ctenocephalides Felis—In-Vitro Contact Tests Adult Cat Flea 9 mg compound is solved in 1 ml acetone and diluted with acetone to the desired concentration. 250 μl of the test solution is filled in 25 ml glass test tubes and homogeneously distributed on the inner walls by rotation and tilting on a shaking device (2 h at 30 rpm). With a compound concentration of 900 ppm, an inner surface of 44.7 cm^2 and a homogeneous distribution, a dose of 5 μg/cm^2 is achieved. After the solvent has evaporated, each test tube is filled with 5-10 adult cat fleas (Ctenocephalides felis), closed with a perforated lid and incubated in a lying position at room temperature and relative humidity. After 48 hours efficacy is determined. The fleas are patted on the ground of the tubes and are incubated on a heating plate at 45-50° C. for at most 5 minutes. Immotile or uncoordinated moving fleas, which are not able to escape the heat by climbing upwards, are marked as dead or moribund. […] An efficacy of 100% means all fleas are dead or moribund; 0% means no fleas are dead or moribund.

Test [6] has as its system Myzus persicae. Kind of test: Myzus persicae spray test. Conditions: foliar, 120 h, after 5 days, Chinese cabbage leaf disks. The protocol:
Myzus persicae—Spray Test
To produce a suitable preparation of active compound, 1 part by weight of active compound is mixed with the stated amount of solvents and is diluted with water, containing an emulsifier concentration of 1000 ppm, to the desired concentration. Further test concentrations are prepared by dilution with emulsifier containing water.
Chinese cabbage (Brassica pekinensis) leaf disks infected with all instars of the green peach aphid (Myzus persicae), are sprayed with a preparation of the active ingredient of the desired concentration.
as §3

Usually mortality stands for the share of the test organisms that died. On to `C[C@H](NC(=O)c1cc(F)c(F)c(F)c1)c1ncnn1-c1ccc(C#N)cn1` [Example I-020], for which the mortality at 4 mg/m2 in test [1] is 90 to 100%. Moreover, the mortality at 500 g/ha in the test with Spodoptera frugiperda was 100%. Further, in test [2], the mortality at 20 mg/m2 is 90 to 100%. In addition, in the test on Diabrotica balteata, the pest or weed control at 80 µg/disc, 250 g/ha is 100% and the pest or weed control at 160 µg/disc, 500 g/ha worked out at 100%. Further, the pest or weed control at 0.02 mg in the test with Boophilus microplus worked out at 100%. Also, the mortality at 100 ppm in the test with Ctenocephalides felis [3] amounted to 100%.

Consider `C[C@H](NC(=O)c1cc(Cl)cc(C(F)(F)F)c1)c1ncnn1-c1ccc(C(=O)NC2CC2)cn1` [Example I-061], for which the mortality at 4 ppm in the test on Myzus persicae [4] was found to be 100%. This compound had a mortality at 500 g/ha in the test with Nezara viridula of 100%. In the test with Spodoptera frugiperda, this compound yielded a mortality at 100 g/ha of 100% and a mortality at 500 g/ha of 100%. Moreover, in the test on Diabrotica balteata, the pest or weed control at 80 µg/disc, 250 g/ha is 100% and the pest or weed control at 160 µg/disc, 500 g/ha was found to be 100%. Further, the pest or weed control at 0.02 mg in the test with Boophilus microplus is 100%. Besides, the pest or weed control at 5 µg/cm2 in the test with Ctenocephalides felis [5] worked out at 100%. Besides, the mortality at 100 ppm in the test on Ctenocephalides felis [3] amounted to 100%.

Regarding `CC[C@H](NC(=O)c1cc(Cl)cc(OC(F)(F)F)c1)c1ncnn1-c1ccc([N+](=O)[O-])cn1` [Example I-071], the pest or weed control at 5 µg/cm2 in the test on Ctenocephalides felis [5] was determined as 80%.

In the test on Myzus persicae [6], `C[C@H](NC(=O)c1cc(Cl)cc(C(F)(F)F)c1)c1ncnn1-c1ccc(NC(=O)C2(C#N)CC2)cn1` [Example I-076] yielded a mortality at 500 g/ha of 100%. Besides, the mortality at 4 ppm in the test on Myzus persicae [4] was 100%. For the same compound, in the test on Spodoptera frugiperda, the mortality at 100 g/ha came to 100% and the mortality at 500 g/ha was found to be 100%. Further, in the test with Diabrotica balteata, the pest or weed control at 80 µg/disc, 250 g/ha is 100% and the pest or weed control at 160 µg/disc, 500 g/ha came out at 100%. Also, the pest or weed control at 0.02 mg with Boophilus microplus is 100%. Also, the mortality at 100 ppm in the test with Ctenocephalides felis [3] turned out to be 90%.

In the test with Nezara viridula, `COc1cc(Cl)cc(C(=O)N[C@@H](C)c2ncnn2-c2ccc(C#N)cn2)c1` [Example I-079] displayed a mortality at 100 g/ha of 90% and a mortality at 500 g/ha of 90%. Besides, in the test on Spodoptera frugiperda, the mortality at 500 g/ha is 100%. In the test with Diabrotica balteata, the pest or weed control at 80 µg/disc, 250 g/ha was determined as 100%. Further, in the test with Ctenocephalides felis [5], the pest or weed control at 5 µg/cm2 came to 90%. Also, in the test with Ctenocephalides felis [3], the mortality at 100 ppm came to 100%.

Consider `C[C@H](NC(=O)c1cc(Br)cc(C(F)(F)F)c1)c1ncnn1-c1ccc(C#N)cn1` [Example I-081], for which the mortality at 4 ppm with Myzus persicae [4] was 100%. In the test on Nezara viridula, this compound returned a mortality at 100 g/ha of 90% and a mortality at 500 g/ha of 100%. In the test with Spodoptera frugiperda, the mortality at 100 g/ha turned out to be 100% and the mortality at 500 g/ha amounted to 100%. Besides, in the test with Diabrotica balteata, the pest or weed control at 80 µg/disc, 250 g/ha turned out to be 100% and the pest or weed control at 160 µg/disc, 500 g/ha was 100%. In addition, in the test with Ctenocephalides felis [5], the pest or weed control at 5 µg/cm2 was determined as 90%.

In the case of `C[C@H](NC(=O)c1cc(Cl)cc(C(F)(F)F)c1)c1ncnn1-c1nccs1` [Example I-082, 3-chloro-N-{(1S)-1-[1-(1,3-thiazol-2-yl)-1H-1,2,4-triazol-5-yl]ethyl}-5-(trifluoromethyl)benzamide], the mortality at 500 g/ha in the test on Nezara viridula stood at 100%. In the test on Spodoptera frugiperda, this compound had a mortality at 100 g/ha of 100% and a mortality at 500 g/ha of 100%. Moreover, in the test with Diabrotica balteata, the pest or weed control at 80 µg/disc, 250 g/ha was 100% and the pest or weed control at 160 µg/disc, 500 g/ha was 100%. Also, in the test on Ctenocephalides felis [5], the pest or weed control at 5 µg/cm2 came to 90%.

For `C[C@H](NC(=O)c1cc(Cl)cc(C(F)(F)F)c1)c1ncnn1-c1ncc(Br)s1` [Example I-083, N-{(1S)-1-[1-(5-bromo-1,3-thiazol-2-yl)-1H-1,2,4-triazol-5-yl]ethyl}-3-chloro-5-(trifluoromethyl)benzamide], in the test on Spodoptera frugiperda, the mortality at 100 g/ha turned out to be 100% and the mortality at 500 g/ha amounted to 100%. Further, in the test on Diabrotica balteata, the pest or weed control at 80 µg/disc, 250 g/ha is 100% and the pest or weed control at 160 µg/disc, 500 g/ha is 100%. Also, in the test on Ctenocephalides felis [5], the pest or weed control at 5 µg/cm2 turned out to be 90%. Besides, the mortality at 100 ppm in the test with Ctenocephalides felis [3] came out at 100%.

For the compound `C[C@H](NC(=O)c1cc(Cl)cc(C(F)(F)F)c1)c1ncnn1-c1ncc(C(F)(F)F)s1` [Example I-085], the mortality at 500 g/ha in the test with Nezara viridula was found to be 100%. In the test on Spodoptera frugiperda, this compound showed a mortality at 100 g/ha of 100% and a mortality at 500 g/ha of 100%. Besides, in the test on Diabrotica balteata, the pest or weed control at 80 µg/disc, 250 g/ha turned out to be 100% and the pest or weed control at 160 µg/disc, 500 g/ha is 100%. Also, the pest or weed control at 5 µg/cm2 in the test with Ctenocephalides felis [5] amounted to 100%. This compound showed a mortality at 100 ppm in the test on Ctenocephalides felis [3] of 100%.

As to `C[C@H](NC(=O)c1cc(C(F)(F)F)cc(C(F)(F)F)c1)c1ncnn1-c1ncc(Cl)cc1F` [Example I-088], the mortality at 500 g/ha in the test on Myzus persicae [6] is 90%; in the test with Nezara viridula, 100%; in the test on Spodoptera frugiperda, 100%. Also, the values for the mortality at 100 g/ha in the test on Nezara viridula and in the test on Spodoptera frugiperda were 90% and 100%, respectively. For the same compound, the pest or weed control at 80 µg/disc, 250 g/ha with Diabrotica balteata was determined as 100%. The pest or weed control at 160 µg/disc, 500 g/ha in the test with Diabrotica balteata turned out to be 100%. For the same compound, in the test with Ctenocephalides felis [5], the pest or weed control at 5 µg/cm2 was 100%. Moreover, the mortality at 100 ppm with Ctenocephalides felis [3] was found to be 100%.

Take `C[C@H](NC(=O)c1cc(Cl)cc(OC(F)(F)F)c1)c1ncnn1-c1ccc([N+](=O)[O-])cn1` [Example I-089]: the mortality at 100 g/ha came out at 90% with Myzus persicae [6] (100 g/ha), 90% with Nezara viridula and 100% in the test with Spodoptera frugiperda. The mortality at 500 g/ha stood at 90% with Myzus persicae [6], 100% with Nezara viridula and 100% in the test on Spodoptera frugiperda. Also, in the test on Myzus persicae [4], the mortality at 4 ppm came to 90%. Also, the pest or weed control at 80 µg/disc, 250 g/ha in the test on Diabrotica balteata amounted to 100%. Also, the pest or weed control at 160 µg/disc, 500 g/ha in the test on Diabrotica balteata was 100%. Further, the pest or weed control at 5 µg/cm2 in the test with Ctenocephalides felis [5] was 100%. In the test on Ctenocephalides felis [3], this compound displayed a mortality at 100 ppm of 100%.
